Measured values: article PMC12311259, “Antifibrotic effects of specific targeting of the 5‐hydroxytryptamine 2B receptor (5‐HT2BR) in murine models and ex vivo models of scleroderma skin” (Arthritis & Rheumatology (Hoboken, N.j.), 2025)

Experiments:
[1] = target: Serotonin (5-Hydroxytryptamine) 5-HT4 (gp) (Cavia porcellus, UniProt O70528); assay: Receptor binding, Eurofins Panlabs 272000; parameters: species or system guinea pig
Excerpt: (§1) Effects were considered significant if AM1476's mean value was three or more SDs above the vehicle control mean in the agonist assay or three or more SDs below the positive control agonist (5‐nM α‐methylserotonin) mean in the antagonist assay. AM1476 was screened for selectivity against approximately 200 targets using a Eurofins Panlabs Spectrum screen panel including enzymatic and receptor binding assays.

[2] = tested on: approximately 200 targets; assay: Eurofins Panlabs Spectrum screen selectivity panel (enzymatic and receptor binding assays); conditions: no binding defined as <50% inhibition at 10 μM
Excerpt: as §1

[3] = target: T1, Uptake, Norepinephrine (hu) (Homo sapiens, UniProt P23975); assay: Functionality assay, Uptake, Eurofins Panlabs 302000; assay type: cell-based
T1 construct: Eurofins Panlabs 302000
Excerpt: as §1

[4] = tested on: cGvHD-induced pulmonary fibrosis; assay: Sclerodermatous cGvHD mouse model, pulmonary fibrosis; assay type: in vivo
Protocol: AM1476 was dissolved in sterile distilled water for the ex vivo and in vivo experiments. A concentration of 30 μM was applied for the ex vivo experiment. For the in vivo experiments, 1, 3, or 10 mg/kg was administered orally once or twice daily.
The B10.D2→BALB/c (H‐2d) minor histocompatibility antigen–mismatched model was performed as described.[9], [10] Briefly, female BALB/c (H‐2d) mice were purchased from Janvier. Male B10.D2 (H‐2d) mice were initially purchased from Jackson Laboratory. All mice were maintained in specific pathogen‐free conditions with sterile pellet food and water and a normal day–night cycle. For isolation of unfractionated bone marrow cells, tibial and femoral bones were prepared under sterile conditions. Phosphate buffered saline (PBS) was used to flush bone marrow cells from bone marrow cavities. Subsequently, bone marrow cells were filtered through 70‐μm nylon meshes (BD Biosciences), followed by erythrocyte hemolysis. The remaining bone marrow cells were kept on ice until transplantation. Transplantation of bone marrow cells and splenocytes was performed as follows: Recipient mice (BALB/c [H‐2d]) eight weeks of age received total body irradiation with 750 cGy. Six hours after irradiation, all BALB/c (H‐2d) recipients received bone marrow from either BALB/c (H‐2d) in a syngeneic transplantation manner or B10.D2 (H‐2d) in an allogeneic transplantation manner. For transplantation, 5 × 10[6] splenocytes and 2 × 10[6] bone marrow cells from donor mice were resuspended in 0.2 mL of PBS and injected via tail veins.[9], [10] […] The outcome of treatment was analyzed seven weeks after transplantation. Eight mice per group were analyzed.
Skin samples were fixed in 4% formalin for six hours and embedded in paraffin. […] The dermal thickness was quantified on H&E‐stained sections using images captured with a light microscope (Nikon eclipse 80i) at 100‐fold magnification by manually measuring the distance between the epidermal‐dermal junction and the dermal‐subcutaneous fat junction at four sites per mouse.[15], [16] […] Histologic readouts were evaluation of the fibrotic area as the percentage of the total lung area in sirius red–stained sections (two sections per mouse) and quantification of pulmonary changes using the Ashcroft score (four sections per mouse).[17], [18]
The amount of collagen protein in skin and lung samples was determined by hydroxyproline assay.[19], [20] […] The absorbance was determined at 557 nm with a Spectra MAX 190 microplate spectrophotometer. Absolute values were determined using a standard curved generated with type I collagen (Sigma‐Aldrich).

[5] = target: T2, Serotonin (5-Hydroxytryptamine) 5-HT1A (hu) (Homo sapiens, UniProt P08908); assay: Receptor binding, Eurofins Panlabs 271110
T2 construct: Eurofins Panlabs 271110
Excerpt: as §1

healthy individuals = assay: Phase 1 clinical trial, safety, tolerability and pharmacokinetic profile (NCT04691115); assay type: in vivo, human; conditions: for Any adverse event / Depressed level of consciousness / Dizziness / Gastrointestinal disorders / Headache / Nausea / Nervous system disorders / Presyncope / Serious adverse event / Syncope: fasted, N = 6
Excerpt: These findings prompted us to perform a phase 1 clinical trial investigating safety, tolerability, and the pharmacokinetic profile of AM1476 in healthy individuals (ClinicalTrials.gov identifier NCT04691115). […] An excerpt of the summary of adverse events is found in Supplementary Table S5. […] The anticipated clinical efficacy exposure was well covered by investigated doses.

Adrenergic α1D (hu) = target: T3, Adrenergic α1D (hu) (Homo sapiens, UniProt P25100); assay: Functionality assay, IP1, Eurofins Panlabs 302080; assay type: cell-based
T3 construct: Eurofins Panlabs 302080

[6] = target: T4, Serotonin (5-Hydroxytryptamine) 5-HT6 (hu) (Homo sapiens, UniProt P50406); assay: Receptor binding, Eurofins Panlabs 272200
T4 construct: 318000 (adenylyl cyclase)
Excerpt: as §1

Serotonin 5-HT6 (hu) = target: T5, Serotonin 5-HT6 (hu) (Homo sapiens, UniProt P50406); assay: Functionality assay, Adenylyl Cyclase, Eurofins Panlabs 318000; assay type: cell-based
T5 construct: 318000 (adenylyl cyclase)
Excerpt: as §1

Adrenergic β1 (hu) = target: T6, Adrenergic β1 (hu) (Homo sapiens, UniProt P08588); assay: Functionality assay, Adenylyl Cyclase, Eurofins Panlabs 302230; assay type: cell-based
T6 construct: Eurofins Panlabs 302230
Excerpt: as §1

[7] = tested on: Sodium Channel, Site 2 (gp); assay: Functionality assay, Eurofins Panlabs 475010; assay type: biochemical, guinea pig
Excerpt: as §1

[8] = all three doses, vs vehicle-treated mice seven weeks after BMT

T4 sequence (P50406 whole entry): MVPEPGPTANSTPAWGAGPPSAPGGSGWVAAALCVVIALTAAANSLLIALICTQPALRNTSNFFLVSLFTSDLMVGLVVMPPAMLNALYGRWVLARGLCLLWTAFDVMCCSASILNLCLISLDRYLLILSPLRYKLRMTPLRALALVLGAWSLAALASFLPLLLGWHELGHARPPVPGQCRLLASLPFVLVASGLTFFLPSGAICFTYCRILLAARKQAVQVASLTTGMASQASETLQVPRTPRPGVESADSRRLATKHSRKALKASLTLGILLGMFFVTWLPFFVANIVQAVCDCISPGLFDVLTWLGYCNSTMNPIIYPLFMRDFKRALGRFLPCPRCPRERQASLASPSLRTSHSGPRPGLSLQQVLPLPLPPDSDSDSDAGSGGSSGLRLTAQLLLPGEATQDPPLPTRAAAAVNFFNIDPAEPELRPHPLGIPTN
T5 sequence (P50406 whole entry): as above
T6 sequence (P08588 whole entry): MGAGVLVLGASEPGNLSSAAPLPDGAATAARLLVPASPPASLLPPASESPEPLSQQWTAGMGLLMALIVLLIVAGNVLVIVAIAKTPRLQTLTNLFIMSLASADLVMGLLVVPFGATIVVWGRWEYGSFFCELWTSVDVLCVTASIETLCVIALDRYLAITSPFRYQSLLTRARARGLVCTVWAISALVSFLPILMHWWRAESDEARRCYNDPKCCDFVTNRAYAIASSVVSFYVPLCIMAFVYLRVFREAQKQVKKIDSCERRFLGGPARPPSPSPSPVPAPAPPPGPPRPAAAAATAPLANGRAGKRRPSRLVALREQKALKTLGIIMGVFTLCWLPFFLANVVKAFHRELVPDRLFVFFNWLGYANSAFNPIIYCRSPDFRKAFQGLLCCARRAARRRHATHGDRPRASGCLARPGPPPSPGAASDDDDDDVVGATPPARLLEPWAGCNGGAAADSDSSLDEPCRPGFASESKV
Sequence of Serotonin (5-Hydroxytryptamine) 5-HT4 (gp) (O70528 1-358 limits assumed): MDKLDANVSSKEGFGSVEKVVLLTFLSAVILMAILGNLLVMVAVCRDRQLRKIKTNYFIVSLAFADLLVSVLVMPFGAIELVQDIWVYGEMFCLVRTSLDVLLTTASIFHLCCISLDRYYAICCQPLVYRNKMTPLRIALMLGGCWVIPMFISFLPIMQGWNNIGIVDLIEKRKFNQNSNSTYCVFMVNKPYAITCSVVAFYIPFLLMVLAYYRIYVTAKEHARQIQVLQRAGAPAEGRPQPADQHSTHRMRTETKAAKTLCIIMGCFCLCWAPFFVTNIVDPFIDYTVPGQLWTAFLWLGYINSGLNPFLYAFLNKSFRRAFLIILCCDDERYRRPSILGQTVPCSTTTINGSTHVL
T3 sequence (P25100 whole entry): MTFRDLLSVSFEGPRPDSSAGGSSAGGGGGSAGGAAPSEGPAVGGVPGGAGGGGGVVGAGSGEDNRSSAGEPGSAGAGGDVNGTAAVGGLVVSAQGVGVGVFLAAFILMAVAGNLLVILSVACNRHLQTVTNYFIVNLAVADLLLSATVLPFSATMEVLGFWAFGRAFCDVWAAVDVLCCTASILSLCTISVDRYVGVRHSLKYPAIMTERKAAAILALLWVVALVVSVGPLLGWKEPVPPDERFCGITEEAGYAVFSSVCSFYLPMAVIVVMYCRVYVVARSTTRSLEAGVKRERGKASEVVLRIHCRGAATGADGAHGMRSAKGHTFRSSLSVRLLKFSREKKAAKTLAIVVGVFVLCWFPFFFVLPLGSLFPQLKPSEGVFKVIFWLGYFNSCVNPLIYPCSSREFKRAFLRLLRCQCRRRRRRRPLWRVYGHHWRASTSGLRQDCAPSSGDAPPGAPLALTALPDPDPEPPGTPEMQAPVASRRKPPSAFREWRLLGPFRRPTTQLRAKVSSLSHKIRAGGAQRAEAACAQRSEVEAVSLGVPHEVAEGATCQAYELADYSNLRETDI
T2 sequence (P08908 whole entry): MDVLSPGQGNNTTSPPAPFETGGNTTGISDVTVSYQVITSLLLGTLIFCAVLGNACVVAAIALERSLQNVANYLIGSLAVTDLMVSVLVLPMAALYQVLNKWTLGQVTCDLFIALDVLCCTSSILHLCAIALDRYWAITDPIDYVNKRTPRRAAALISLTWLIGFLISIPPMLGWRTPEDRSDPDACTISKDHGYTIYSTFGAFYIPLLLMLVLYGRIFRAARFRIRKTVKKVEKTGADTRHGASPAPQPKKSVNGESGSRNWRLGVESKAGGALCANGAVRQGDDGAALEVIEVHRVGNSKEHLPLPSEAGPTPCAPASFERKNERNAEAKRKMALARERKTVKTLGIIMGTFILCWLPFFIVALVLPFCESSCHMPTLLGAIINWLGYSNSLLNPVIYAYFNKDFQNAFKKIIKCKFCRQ
T1 sequence (P23975 whole entry): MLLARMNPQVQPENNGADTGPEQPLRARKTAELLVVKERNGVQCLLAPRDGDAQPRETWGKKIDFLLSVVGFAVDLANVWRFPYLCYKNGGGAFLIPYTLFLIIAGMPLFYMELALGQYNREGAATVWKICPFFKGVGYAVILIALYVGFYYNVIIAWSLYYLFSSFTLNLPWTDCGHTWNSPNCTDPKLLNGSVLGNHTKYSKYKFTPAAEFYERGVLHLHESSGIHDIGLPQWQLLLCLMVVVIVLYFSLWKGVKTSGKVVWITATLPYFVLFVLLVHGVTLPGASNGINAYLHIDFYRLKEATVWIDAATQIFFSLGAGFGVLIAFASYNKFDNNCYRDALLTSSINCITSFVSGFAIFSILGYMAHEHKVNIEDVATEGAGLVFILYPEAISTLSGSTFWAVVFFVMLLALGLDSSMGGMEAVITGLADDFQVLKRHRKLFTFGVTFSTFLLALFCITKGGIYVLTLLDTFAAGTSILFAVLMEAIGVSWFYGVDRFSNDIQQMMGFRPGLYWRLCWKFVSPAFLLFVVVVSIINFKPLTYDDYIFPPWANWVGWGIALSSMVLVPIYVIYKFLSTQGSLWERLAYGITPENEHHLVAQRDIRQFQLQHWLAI

Q: `C[C@@H]1CN(C(=N)N)N=C1c1ccc(F)cc1O` [AM1476] was tested. Which “% Inhibition at 1 µM, 5-HT4 (gp)” value ([1]; 1 µM (value in brackets)) did it give?
A: 34%

Q: And the “% Inhibition at 10 µM, 5-HT4 (gp)” value ([1]; 10 µM)?
A: 74%

Q: What about the “binding to approximately 200 other targets” value [2] of the same compound?
A: no binding to the majority of targets

Q: What about the IC50 [3] of the same compound?
A: 3.78 µM

Q: And the “hydroxyproline levels, lung, vs mice killed three weeks after BMT” value ([4]; 10 mg/kg qd)?
A: below those of mice killed three weeks after BMT

Q: What about the Ashcroft scores [4, 8] of the same compound?
A: reduced

Q: What about the collagen-covered lung area [4, 8] of the same compound?
A: reduced

Q: And the “hydroxyproline content, lung” value [4, 8]?
A: reduced

Q: And the “% Inhibition at 10 µM, 5-HT1A (hu)” value [5]?
A: 16%

Q: And the Any adverse event (healthy individuals; 375 mg BID)?
A: 2 (33.3%) no. of subjects (%)

Q: What about the “Depressed level of consciousness” value (healthy individuals; 375 mg BID) of the same compound?
A: 0 no. of subjects (%)

Q: And the Dizziness (healthy individuals; 375 mg BID)?
A: 1 (16.7%) no. of subjects (%)

Q: What about the Gastrointestinal disorders (healthy individuals; 375 mg BID) of the same compound?
A: 2 (33.3%) no. of subjects (%)

Q: What about the Headache (healthy individuals; 375 mg BID) of the same compound?
A: 2 (33.3%) no. of subjects (%)

Q: What about the Nausea (healthy individuals; 375 mg BID) of the same compound?
A: 2 (33.3%) no. of subjects (%)

Q: What about the Nervous system disorders (healthy individuals; 375 mg BID) of the same compound?
A: 2 (33.3%) no. of subjects (%)

Q: What about the Presyncope (healthy individuals; 375 mg BID) of the same compound?
A: 0 no. of subjects (%)

Q: What about the Serious adverse event (healthy individuals; 375 mg BID) of the same compound?
A: 0 no. of subjects (%)

Q: And the Syncope (healthy individuals; 375 mg BID)?
A: 0 no. of subjects (%)

Q: What about the Any adverse event (healthy individuals; 500 mg BID) of the same compound?
A: 4 (66.7%) no. of subjects (%)

Q: What about the “Depressed level of consciousness” value (healthy individuals; 500 mg BID) of the same compound?
A: 0 no. of subjects (%)

Q: What about the Dizziness (healthy individuals; 500 mg BID) of the same compound?
A: 1 (16.7%) no. of subjects (%)

Q: And the Gastrointestinal disorders (healthy individuals; 500 mg BID)?
A: 1 (16.7%) no. of subjects (%)

Q: And the Headache (healthy individuals; 500 mg BID)?
A: 1 (16.7%) no. of subjects (%)

Q: What about the Nausea (healthy individuals; 500 mg BID) of the same compound?
A: 1 (16.7%) no. of subjects (%)

Q: And the Nervous system disorders (healthy individuals; 500 mg BID)?
A: 2 (33.3%) no. of subjects (%)

Q: And the Presyncope (healthy individuals; 500 mg BID)?
A: 0 no. of subjects (%)

Q: What about the Serious adverse event (healthy individuals; 500 mg BID) of the same compound?
A: 0 no. of subjects (%)

Q: What about the Syncope (healthy individuals; 500 mg BID) of the same compound?
A: 0 no. of subjects (%)

Q: What about the serious adverse events (healthy individuals; healthy individuals) of the same compound?
A: no serious adverse events were reported

Q: And the “severity of adverse events” value (healthy individuals; healthy individuals)?
A: most of the adverse events were mild in severity

Q: And the tolerability (healthy individuals; healthy individuals)?
A: well tolerated

Q: What about the “time to steady state” value (healthy individuals; multiple-dose period) of the same compound?
A: by day two

Q: And the absorption (healthy individuals; single and multiple oral administration, fasted state)?
A: rapidly absorbed

Q: What about the IC50 (Adrenergic α1D (hu)) of the same compound?
A: 7.76 µM

Q: What about the “agonistic activity, Adrenergic α1D” value (Adrenergic α1D (hu); at 30 µM) of the same compound?
A: No significant agonistic activity at 30 µM

Q: What about the “% Inhibition at 1 µM, 5-HT6 (hu)” value ([6]; 1 µM (value in brackets)) of the same compound?
A: 51%

Q: What about the “% Inhibition at 10 µM, 5-HT6 (hu)” value ([6]; 10 µM) of the same compound?
A: 90%

Q: What about the IC50 (Serotonin 5-HT6 (hu)) of the same compound?
A: 4.55 µM

Q: And the “agonistic activity, Serotonin 5-HT6” value (Serotonin 5-HT6 (hu); at 30 µM)?
A: No significant agonistic activity at 30 µM

Q: What about the IC50 (Adrenergic β1 (hu)) of the same compound?
A: 32.5 µM

Q: What about the “agonistic activity, Adrenergic β1” value (Adrenergic β1 (hu); at 300 µM) of the same compound?
A: No significant agonistic activity at 300 µM

Q: And the IC50 [7]?
A: > 30 µM

Q: What about the “agonistic activity, Sodium Channel, Site 2” value ([7]; at 30 µM) of the same compound?
A: No significant agonistic activity at 30 µM
